This note sets out measurements from patent publication EP0005186A1, “3-Alkyl-5-(2-hydroxystyryl)-isoxazoles and process for their preparation” (BASF Aktiengesellschaft, priority 1978, dated 1979).

In general, LD50 refers to the dose at which mortality reaches 50%.

One data set has as its system narkotisierten Ratte. As to the kind of experiment: blood-pressure-lowering effect in the anaesthetised rat. To be noted: for ED20: Rattus norvegicus, iv, read-out: Blutdrucksenkende Wirkung ED 20 %; for Blutdrucksenkende Wirkung ED 20 %: Urethan-Narkose, dose lowering blood pressure by 20 %; for Tiere gestorben: 10 mg/kg, dead animals of 6. The method, then:
(§1) Die Applikation der getesteten Substanzen erfolgt 10 min vor Isoproterenol an Gruppen von 3 bis 5 Katzen pro Dosis. […] Blutdrucksenkende Wirkung an der. narkotisierten Ratte. Zur Testung der blutdrucksenkenden Wirkung erhalten Gruppen von 3 bis 5 männlichen Sprague-Dawley-Ratten (Gewicht: 230 - 280 g) in Urethan-Narkose (1,78 g/kg) i.p.) die Substanz intravenös appliziert. Die Messung des Blutdrucks in der A.carotis erfolgt über Statham-Transducer. Als ED 20 % wird die Dosis ermittelt, welche den mittleren Carotisdruck um 20 % senkt. • 3. Antihypertensive Wirkung an spontan hypertonen Ratten. Die Substanzen werden Gruppen von 8 männlichen spontan hypertonen Okamoto-Ratten (Gewicht: 280 - 350 g) oral appliziert. Vor und zwei Stunden nach der Applikation wird der systolische Blutdruck am Rattenschwanz unblutig mit Hilfe von Piezokristallaufnehmern gemessen. Als ED 20 % wird unter Berücksichtigung der Nerte unbehandelter Kontrolltiere die Dosis bestimmt, welche den systolischen Druck um 20 % senkt. • 4. Akute Toxizität an der Maus Zur Bestimmung der akuten Toxizität (LD 50) werden die Substanzen Gruppen von je 10 weiblichen NMRI-Mäusen (Gewicht: 19 - 20 g) intraperitoneal appliziert. Die Beobachtungsdauer beträgt 1 Woche. Die Berechnung der wirksamen Dosen (s. 1.-3.) erfolgte aus den linearen Beziehungen zwischen den Logarithmen der Dosen und der Wirkung mit Hilfe der Regressionsanalyse. Die LD 50 (4.) wurden mit Hilfe der Probit-Analyse bestimmt.

In data set [1] the test system is Isoproterenol--Tachycardie der narkotisierten Katze. Kind of data set: beta-sympatholytic effect on isoproterenol tachycardia in the anaesthetised cat. It is filed as in vivo. To be noted: for ß-Sympatholytische Wirkung R.W. (Relative Wirksamkeit): Propranolol = 1,00; for ED50: Felis catus, iv, read-out: ß-Sympatholytische Wirkung ED 50 %. The protocol:
as §1, with “Akute Toxizität an der Maus Zur Bestimmung der akuten Toxizität (LD 50) werden die Substanzen Gruppen von je 10 weiblichen NMRI-Mäusen (Gewicht: 19 - 20 g) intraperitoneal appliziert.” left out, “Regressionsanalyse.” for “Regressionsanalyse. Die LD 50 (4.) wurden mit Hilfe der Probit-Analyse bestimmt.”

Another data set can be described thus: in vivo. To be noted: mouse, in vivo, ip. The method, then: as §1, with “Akute Toxizität an der Maus Zur Bestimmung der akuten Toxizität (LD 50) werden die Substanzen Gruppen von je 10 weiblichen NMRI-Mäusen (Gewicht: 19 - 20 g) intraperitoneal appliziert.” left out, “Regressionsanalyse.” for “Regressionsanalyse. Die LD 50 (4.) wurden mit Hilfe der Probit-Analyse bestimmt.”

The test system of another data set is Maus. As to the kind of experiment: in vivo. The note with it: Maus, i.p., observation 1 week; 10080 min. The protocol: as §1, with “Akute Toxizität an der Maus Zur Bestimmung der akuten Toxizität (LD 50) werden die Substanzen Gruppen von je 10 weiblichen NMRI-Mäusen (Gewicht: 19 - 20 g) intraperitoneal appliziert.” left out, “Regressionsanalyse.” for “Regressionsanalyse. Die LD 50 (4.) wurden mit Hilfe der Probit-Analyse bestimmt.”

Data set [2] concerns spontan hypertonen Ratten. As to the kind of experiment: antihypertensive effect in spontaneously hypertensive rats. It is filed as in vivo, Okamoto-Ratten. The note with it: spontan hypertone Ratten, oral. The protocol: as §1, with “Die LD 50 (4.) wurden mit Hilfe der Probit-Analyse bestimmt.” left out

For `CCc1cc(C=Cc2ccccc2OCC(O)CNC(C)(C)C)on1` (centres unmarked) [Verbindung 9, 3-Äthyl-5-[2-(2-hydroxy-3-tert.-butylaminopropoxy)-styryl]-isoxazol], the ED20 with narkotisierten Ratte turned out to be 0.93 mg/kg. Moreover, the “ß-Sympatholytische Wirkung R.W. (Relative Wirksamkeit)” value in data set [1] (Katze, i.v.) is recorded as 6,1. For the same molecule, in the data set “in vivo”, the LD50 at 168 h was determined as 84 mg/kg.
Regarding “3-Äthyl-5-[2-(2-hydroxy-3-cyclopropylaminopropoxy)-styryl]-isoxazol [Verbindung 8]”, in the data set with narkotisierten Ratte (Ratte, i.v.), the “Blutdrucksenkende Wirkung ED 20 %” value is 0,83 mg/kg. For the same molecule, the “ß-sympatholytische Wirksamkeit compared with Propranolol” value in data set [1] is listed as “etwa wirkungsgleich”. The “ß-Sympatholytische Wirkung ED 50 %” value in data set [1] (Katze, Hexobarbital-Narkose, i.v., dose inhibiting the isoproterenol heart-rate increase by 50 %) is reported as 0,12 mg/kg. Moreover, in data set [1] (Katze, i.v.), the “ß-Sympatholytische Wirkung R.W. (Relative Wirksamkeit)” value was 0,9. In addition, the “Letalität LD 50” value in the data set on Maus worked out at 95 mg/kg.
For `C#CC(C)(C)NCC(O)COc1ccccc1C=Cc1cc(C)no1` (centres unmarked) [Verbindung 10], the ED20 in the data set with narkotisierten Ratte was determined as 1 mg/kg. Also, the “ß-Sympatholytische Wirkung R.W. (Relative Wirksamkeit)” value in data set [1] (Katze, i.v.) is recorded as 6,5. In addition, the LD50 at 168 h in the data set “in vivo” is 247 mg/kg.
With `Cc1cc(C=Cc2ccccc2OCC(O)CNC(C)C)on1` (centres unmarked) [Verbindung 6, 3-Methyl-5-[2-(2-hydroxy-3-isopropyl-aminopropoxy)-styryl]-isoxazol], the ED20 in the data set on narkotisierten Ratte was determined as 0.65 mg/kg. In addition, in data set [1], the ED50 is 0.0077 mg/kg. The “ß-Sympatholytische Wirkung R.W. (Relative Wirksamkeit)” value in data set [1] (Katze, i.v.) is on record as 14,3. Further, the LD50 at 168 h in the data set “in vivo” was determined as 108 mg/kg.
Molecule `CC(C)NCC(O)COc1cccc2ccccc12` (centres unmarked) [Propranolol, reference compound] registered a Tiere gestorben with narkotisierten Ratte (Ratte, i.v.) of 2 von 6. In the data set with narkotisierten Ratte (Ratte, i.v., bis 2,15 mg/kg), the Blutdrucksteigerung result is recorded as “blutdrucksteigernd”. Further, the “Antihypertensive Wirkung” value in data set [2] (bis zu einer Dosis von 100 mg/kg) is on record as “wirkungslos”.
For `Cc1cc(C=Cc2ccccc2OCC(O)CNC(C)(C)C)on1` (centres unmarked) [Verbindung 7, 3-Methyl-5-[2-(2-hydroxy-3-tert.-butylaminopropoxy)-styryl]-isoxazol], in the data set with narkotisierten Ratte (Ratte, i.v.), the “Blutdrucksenkende Wirkung ED 20 %” value is given as 0,40 mg/kg, the “ratio of the 10 mg/kg dose to the blood-pressure-lowering dose (0,4 mg/kg)” value is 25 mal and the Tiere gestorben came to 1 von 6. The ED20 in the data set with narkotisierten Ratte was 0.4 mg/kg. In addition, the ED50 in data set [1] was 0.0055 mg/kg. For the same molecule, the “ß-Sympatholytische Wirkung R.W. (Relative Wirksamkeit)” value in data set [1] (Katze, i.v.) was 20,0. In “in vivo”, this molecule displayed an LD50 at 168 h of 123 mg/kg. Further, the ED20 in data set [2] (Rattus norvegicus, systolic pressure 2 h after dosing lowered by 20 %, read-out: Antihypertensive Wirkung ED 20 %) worked out at 14.5 mg/kg.
